Results as given in patent US20250268873A1, “COMBINATION OF DUAL ATM AND DNA-PK INHIBITORS AND IMMUNOTHERAPEUTIC AGENTS FOR USE IN CANCER THERAPY” (XRAD THERAPEUTICS, INC., priority 2021, published 2025).

Tests used:
[1] = test system: MCF7 cells; assay: Clonogenic Survival Assay in MCF7 cells; assay type: cell-based, human; conditions: for Fold 2 Gy / Fold 4 Gy: vs DMSO; for % survival @ 0 Gy w/out IR: no IR
Procedure: Human cancer cell lines, including MCF-7 human breast carcinoma cell line and A549 human lung carcinoma cell line, and HCT116 p53 wild-type and HCT116 p53−/− cell lines were obtained from ATCC. MCF7 and HCT116 cells were cultured in Dulbecco's modified Eagle's medium (DMEM (Gibco #11995-065). MDA-MB-231 human triple negative breast cancer cell line and FADU, human head and neck squamous cell carcinoma line, were obtained from Charles River Laboratories (Morrisville, NC). MDA-MB-231 and A549 cells were cultured in RPMI 1640 medium (Gibco, 11875-093). FADU cells were cultured in Minimum Essential Medium α (MEM α) (Gibco, 12571-063) supplemented with 1 mM Sodium Pyruvate (Gibco, 11360-070), 1×MEM Non-Essential Amino Acids (Gibco, 11140-050). All cell lines were supplemented with 10% fetal bovine serum (FBS) (Corning, 35-010-CV) and 1× Antibiotic-Antimycotic (Gibco #15240-062) and were grown at 37° C. in 5% CO2. All cell lines were authenticated by short tandem repeat profiling and tested negative for mycoplasma.
This assay was performed with Compound 569 as an exemplary Formula (I) compound. Cells were plated in 6-well plates at different densities: 250 cells for no IR control, 5000 cells for 2 Gy of IR and 10000 cells for 4 Gy of IR and cultured overnight. The next day, MCF7 cells were preincubated with compound 569 at 100, 250, 500, or 1000 nM or DMSO for 30 min before being exposed to increasing doses of IR (0, 2, or 4 Gy). The A549 cells were incubated with Compound 569 at 500 or 1000 nM or with DMSO for 30 min before being exposed to increasing doses of IR (0, 2, or 4 Gy). After IR, cells were continuously incubated with DMSO or compound 569 for 5 h before the culture medium was removed and cells were washed with PBS. Cells were cultured in complete medium in the absence of inhibitor for 9 days. Then cells were stained (PBS, […], 0.1% crystal violet) rinsed with water and dried.

[2] = target: ATM (Homo sapiens (Human), UniProt Q13315); assay: Pharmacodynamic assay, pKAP1/KAP1 in MDA-231 tumors; assay type: in vivo
ATM, sequence (Q13315 whole entry): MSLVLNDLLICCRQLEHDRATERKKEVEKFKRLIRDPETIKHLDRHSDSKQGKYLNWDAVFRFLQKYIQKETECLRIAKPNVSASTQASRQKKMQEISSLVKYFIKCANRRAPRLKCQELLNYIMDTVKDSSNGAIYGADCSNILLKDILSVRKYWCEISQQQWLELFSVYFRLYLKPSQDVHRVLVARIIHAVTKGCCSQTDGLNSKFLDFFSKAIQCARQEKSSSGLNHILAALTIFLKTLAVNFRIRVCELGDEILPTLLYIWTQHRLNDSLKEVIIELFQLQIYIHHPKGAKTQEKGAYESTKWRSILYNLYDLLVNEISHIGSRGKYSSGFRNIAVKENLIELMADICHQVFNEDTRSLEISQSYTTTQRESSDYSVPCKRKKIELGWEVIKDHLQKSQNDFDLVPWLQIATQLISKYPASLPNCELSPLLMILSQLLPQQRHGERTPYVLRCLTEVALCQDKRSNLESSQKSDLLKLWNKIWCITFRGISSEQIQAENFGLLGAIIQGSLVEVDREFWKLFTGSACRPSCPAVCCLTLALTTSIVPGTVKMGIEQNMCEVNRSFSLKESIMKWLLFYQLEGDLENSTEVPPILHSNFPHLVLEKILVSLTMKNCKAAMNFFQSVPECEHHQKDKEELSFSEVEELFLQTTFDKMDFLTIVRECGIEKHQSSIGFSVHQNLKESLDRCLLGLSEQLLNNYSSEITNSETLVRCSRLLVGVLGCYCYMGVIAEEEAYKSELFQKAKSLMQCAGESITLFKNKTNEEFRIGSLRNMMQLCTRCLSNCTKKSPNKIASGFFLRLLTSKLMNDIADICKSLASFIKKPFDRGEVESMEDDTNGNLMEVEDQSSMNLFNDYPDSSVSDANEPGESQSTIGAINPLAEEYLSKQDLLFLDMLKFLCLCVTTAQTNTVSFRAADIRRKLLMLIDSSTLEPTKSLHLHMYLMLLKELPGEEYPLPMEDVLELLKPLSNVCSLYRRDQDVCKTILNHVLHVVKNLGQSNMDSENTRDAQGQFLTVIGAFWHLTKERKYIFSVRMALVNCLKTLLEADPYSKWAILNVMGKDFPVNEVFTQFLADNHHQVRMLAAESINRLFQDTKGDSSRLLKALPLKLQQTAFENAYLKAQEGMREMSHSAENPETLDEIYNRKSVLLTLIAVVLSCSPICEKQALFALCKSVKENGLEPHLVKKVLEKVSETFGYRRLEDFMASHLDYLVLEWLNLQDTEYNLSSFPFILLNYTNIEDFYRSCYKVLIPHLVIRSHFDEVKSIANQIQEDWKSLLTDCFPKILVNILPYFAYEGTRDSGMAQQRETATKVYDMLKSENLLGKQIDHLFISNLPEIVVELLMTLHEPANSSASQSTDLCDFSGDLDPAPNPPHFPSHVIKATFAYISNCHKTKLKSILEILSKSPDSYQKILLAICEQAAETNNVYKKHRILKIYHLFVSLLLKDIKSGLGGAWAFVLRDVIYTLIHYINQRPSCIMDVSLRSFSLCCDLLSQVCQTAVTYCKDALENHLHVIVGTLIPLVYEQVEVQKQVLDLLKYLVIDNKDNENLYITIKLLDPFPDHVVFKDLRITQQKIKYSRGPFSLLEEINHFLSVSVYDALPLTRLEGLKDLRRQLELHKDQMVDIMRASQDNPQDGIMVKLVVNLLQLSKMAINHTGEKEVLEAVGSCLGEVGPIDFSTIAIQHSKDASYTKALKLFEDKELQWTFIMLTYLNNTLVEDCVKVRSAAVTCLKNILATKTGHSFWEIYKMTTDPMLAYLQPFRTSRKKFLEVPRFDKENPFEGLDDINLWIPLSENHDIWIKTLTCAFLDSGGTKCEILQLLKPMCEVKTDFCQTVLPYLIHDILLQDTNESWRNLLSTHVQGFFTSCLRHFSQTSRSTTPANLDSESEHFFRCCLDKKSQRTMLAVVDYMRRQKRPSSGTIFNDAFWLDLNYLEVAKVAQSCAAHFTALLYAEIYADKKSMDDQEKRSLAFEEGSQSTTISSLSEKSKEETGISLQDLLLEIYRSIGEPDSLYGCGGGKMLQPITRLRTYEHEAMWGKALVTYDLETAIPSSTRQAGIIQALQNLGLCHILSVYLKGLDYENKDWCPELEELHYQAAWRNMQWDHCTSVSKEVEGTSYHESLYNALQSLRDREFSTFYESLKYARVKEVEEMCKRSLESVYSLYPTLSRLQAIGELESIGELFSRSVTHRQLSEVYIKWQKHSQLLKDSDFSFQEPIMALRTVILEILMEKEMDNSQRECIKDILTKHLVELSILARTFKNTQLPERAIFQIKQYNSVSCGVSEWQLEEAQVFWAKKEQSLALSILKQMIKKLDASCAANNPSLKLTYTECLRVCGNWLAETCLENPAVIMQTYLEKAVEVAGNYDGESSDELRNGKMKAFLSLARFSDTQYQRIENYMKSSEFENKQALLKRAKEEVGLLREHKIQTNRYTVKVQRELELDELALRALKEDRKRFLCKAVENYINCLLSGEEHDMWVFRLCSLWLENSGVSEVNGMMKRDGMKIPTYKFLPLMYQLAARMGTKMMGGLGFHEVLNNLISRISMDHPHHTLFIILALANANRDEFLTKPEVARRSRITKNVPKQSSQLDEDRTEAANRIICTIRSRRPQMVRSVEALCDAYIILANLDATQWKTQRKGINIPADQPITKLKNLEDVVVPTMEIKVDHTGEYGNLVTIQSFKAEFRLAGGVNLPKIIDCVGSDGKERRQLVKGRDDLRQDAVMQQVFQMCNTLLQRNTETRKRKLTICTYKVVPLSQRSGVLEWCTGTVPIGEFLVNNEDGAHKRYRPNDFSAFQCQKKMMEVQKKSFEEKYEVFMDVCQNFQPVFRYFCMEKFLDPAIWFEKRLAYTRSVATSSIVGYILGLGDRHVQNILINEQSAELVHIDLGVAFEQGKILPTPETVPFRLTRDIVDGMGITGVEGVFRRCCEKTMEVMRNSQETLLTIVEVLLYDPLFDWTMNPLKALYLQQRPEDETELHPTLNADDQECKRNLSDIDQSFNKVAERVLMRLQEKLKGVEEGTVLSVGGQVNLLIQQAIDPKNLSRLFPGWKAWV
Procedure: (§1) FADU or MDA-MB-231 cells were harvested during log phase growth for in vivo implantation. The resuspended cells were washed three times in phosphate buffered saline (PBS) before preparing the working dilution in PBS. FADU cells were diluted to 1×10^7 cells/mL and MDA-MB-231 cells were diluted to 5×10^7 cells/mL. Each mouse was injected subcutaneously in the right flank with 100 μL of the cellular suspension. Tumor growth was monitored until the tumors reached a target volume of at least 100 mm^3, at which point mice were randomly stratified into four treatment groups.
(§2) Tumor studies were performed as follows. Mice bearing FADU or MDA-231 tumors were pre-dosed with vehicle alone or compound 569 alone at 3, 6, and 10 mg/kg. Tumors were then irradiated with 10 Gy 45 min after vehicle or compound 569 administration or left unirradiated (vehicle and compound 569 at 10 mg/kg). Tumors were harvested 1 h post radiation.
(§3) Tissue homogenates for pharmacodynamic analyses were collected and processed as follows. Tumor tissues from FADU or MDA-MB-231 tumors were flash frozen in liquid nitrogen and pulverized on dry ice using a tissue pulverizer. A portion of the tumor powder was transferred into a microtube, followed by addition of 500 μL of RIPA buffer [[…], pH 8.0, 150 mM NaCl, 0.1% SDS, 0.5% sodium deoxycholate, 1% IGEPAL® CA-630 (Sigma, I8896)]. To 10 ml of RIPA buffer, 2 tablets each of Protease inhibitor and Phosphatase inhibitor (Roche, #04693159001 & #04906837001), 200 μL of 0.1 M PMSF and 160 μL of Aprotinin, (Sigma, A6279) were added. The suspension was homogenized on ice with a pellet pestle motor (KONTES) and incubated on ice for 30 minutes. Cell lysates were centrifuged at 13,200 rpm for 15 min at 4° C. and supernatants were transferred to a new tube and analyzed for protein concentration with a BCA kit (Pierce, 23227), followed by immunoblotting.

[3] = target: T1, DNA-PK (Homo sapiens (Human), UniProt P78527); assay: Pharmacodynamic assay, pDNA-PK/DNA-PK in MDA-231 tumors; assay type: in vivo
Procedure: as §1, §2, §3

[4] = target: T1, DNA-PK; assay: Pharmacodynamic assay, pDNA-PK/DNA-PK in FADU tumors; assay type: in vivo; conditions: for pDNA-PK/DNA-PK: FADU tumors
Procedure: as §1, §2, §3

## CC(C)NCCOc1ncc(-c2cc3c4c(cnc3cc2F)N(C)C(=O)C42CCC2)cc1NS(C)(=O)=O [Compound 569, N-(5-(7′-Fluoro-3′-methyl-2′-oxo-2′,3′-dihydrospiro[cyclobutane-1,1′-pyrrolo[2,3-c]quinolin]-8′-yl)-2-(2-(isopropylamino)ethoxy)pyridin-3-yl)methanesulfonamide]
[1]; 5-h exposure
  cellular toxicity in the absence of IR: without evidence of cellular toxicity
[1]; 5-h exposure, 100-1000 nM, 0, 2, 4 Gy
  radiosensitization: significant degree of radiosensitization
[1]; 569 100 nM
  Clonogenic survival ratio 0 Gy: 1.000
  Clonogenic survival ratio 2 Gy: 0.0882
  Fold 2 Gy: 7.5
  Clonogenic survival ratio 4 Gy: 0.0146
  Fold 4 Gy: 21.8
  % survival @ 0 Gy w/out IR: 92%
[1]; 569 250 nM
  Clonogenic survival ratio 0 Gy: 1.000
  Clonogenic survival ratio 2 Gy: 0.0610
  Fold 2 Gy: 10.8
  Clonogenic survival ratio 4 Gy: 0.00588
  Fold 4 Gy: 54.0
  % survival @ 0 Gy w/out IR: 97%
[1]; 569 500 nM
  Clonogenic survival ratio 0 Gy: 1.000
  Clonogenic survival ratio 2 Gy: 0.0451
  Fold 2 Gy: 14.7
  Clonogenic survival ratio 4 Gy: 0.00347
  Fold 4 Gy: 91.5
  % survival @ 0 Gy w/out IR: 105%
[1]; 569 1000 nM
  Clonogenic survival ratio 0 Gy: 1.000
  Clonogenic survival ratio 2 Gy: 0.0301
  Fold 2 Gy: 22.0
  Clonogenic survival ratio 4 Gy: 0.0016
  Fold 4 Gy: 198
  % survival @ 0 Gy w/out IR: 100%
[2]; 10 Gy, 3 mg/kg oral
  pKAP1/KAP1: 0.327
[2]; 10 Gy, 6 mg/kg oral
  pKAP1/KAP1: 0.0130
[2]; 10 Gy, 10 mg/kg oral
  pKAP1/KAP1: 0.00901
[2]; no radiation, 10 mg/kg oral
  pKAP1/KAP1: −0.00319
[3]; 10 Gy, 3 mg/kg oral
  pDNA-PK/DNA-PK: 0.889
[3]; 10 Gy, 6 mg/kg oral
  pDNA-PK/DNA-PK: 0.670
[3]; 10 Gy, 10 mg/kg oral
  pDNA-PK/DNA-PK: 0.454
[3]; no radiation, 10 mg/kg oral
  pDNA-PK/DNA-PK: 0.223
[4]; 10 mg/kg, 10 Gy, FADU and MDA231 tumors (FIGS. 4 and 5), read-out: inhibition of tumor levels of radiation-induced autophosphorylation of DNA-PK
  inhibition at 10 mg/kg: ~55%
[4]; 10 Gy, 3 mg/kg oral
  pDNA-PK/DNA-PK: 0.938
[4]; 10 Gy, 6 mg/kg oral
  pDNA-PK/DNA-PK: 0.658
[4]; 10 Gy, 10 mg/kg oral
  pDNA-PK/DNA-PK: 0.476
[4]; no radiation, 10 mg/kg oral
  pDNA-PK/DNA-PK: 0.343
[4]; no radiation, 10 mg/kg
  basal phosphorylation of DNA-PK in tumors: inhibited
